In one data set the test system is E. coli D21. The experiment in a line: inhibition zone assay, lethal concentration. In kind it is cell-based. To be noted: E. coli D21, thin agarose plates. As for the experimental part:
(§1) Thin agar or agarose plates (8.5 cm diameter) were prepared with 6 ml of rich medium containing 100 ug/ml of streptomycin and 2×10^5 viable cells of a test organism resistant to streptomycin. Wells of 3.5 mm diameter were punched in the plates and 3 ul of serially diluted samples were placed in the wells. The diameters of the zones of inhibition around the wells were measured after overnight incubation at 30° or 37° C. For each peptide the squares of the zone diameters were plotted against the logarithm of the concentration, and from the slopes and intercepts the lethal concentrations were calculated as described by Hultmark (1983) EMBO J. 2, 571-76 or Hultmark et al (1982) Eur. J. Biochem. 127 207-217 each of which being incorporated herein by reference.
(§2) Lethal Concentrations calculated from inhibition zones on thin agarose
(§3) plates seeded with the respective organisms. D21: E. coli; OT97: P.

Another data set relates to P. aeruginosa OT97. The experiment in a line: inhibition zone assay, lethal concentration. In kind it is cell-based. To be noted: P. aeruginosa OT97, thin agarose plates. As for the experimental part:
as §1, §2, §3
(§4) aeruginosa; Bs11: B. subtilis; +ME: plates prepared with medium E; Staph: […]

A further data set concerns B. subtilis Bs11. The experiment in a line: inhibition zone assay, lethal concentration. In kind it is cell-based. Particulars: for Lethal Concentrations Bs11 +ME: B. subtilis Bs11, plates prepared with medium E; for Lethal Concentrations Bs11: B. subtilis Bs11, thin agarose plates. The method, then:
as §1, §2, §4

The next data set relates to S. aureus Cowan 1. The experiment in a line: inhibition zone assay, lethal concentration. In kind it is cell-based. Particulars: S. aureus Cowan 1, thin agarose plates. The method, then:
as §1, §2
aeruginosa; Bs11: B. subtilis; +ME: plates prepared with medium E; Staph:
(§5) S. aureus Cowan 1; Strep: S. pyogenes; SRC: Sheep red cells.; *all amino

In the next data set the test system is S. pyogenes. The experiment in a line: inhibition zone assay, lethal concentration. It counts as cell-based. Particulars: thin agarose plates. As for the experimental part:
as §1, §2, §5

In another data set the test system is Sheep red cells. The experiment in a line: inhibition zone assay, lethal concentration on sheep red cells. In kind it is cell-based. Particulars: thin agarose plates. The method, then: as §1, §2, §5
For data set [1], the target named is immune inhibitor A (In A) (Bacillus thuringiensis subsp. alesti, UniProt P23382). In kind it is in vitro ADME. To be noted: 20 min at 36° C.; for Zone of inhibition: E. coli D21 plates. As for the experimental part:
(§6) FIGS. 1 and 2 graphically illustrate the resistance of the compounds of this invention to enzymatic hydrolysis by trypsin or immune inhibitor A (In A). The experiments were conducted as follows:
(§7) The original solutions of the enzymes contained 5 mg/ml in the case of trypsin and 0.1 mg/ml in the case of InA. These two samples were diluted as follows: A 10^-1, B 10^-2, C 10^-3 and D 10^-4. From each dilution, 2 ul were mixed with 2 ul of two peptides (D-CA and L-CA, both containing 1.3 ug/ul=162 pmol/ul). Control mixtures were made with 2 ul water and 2 ul peptide. All samples were incubated for 20 min at 36° C. Before and after the incubation, all samples were kept on ice. After the incubation 3 ul were placed in wells on plates seeded with E. coli D21 in order the determine the amount of antibiotic that was left. The diameter of the inhibition zone was recorded and compared with a previously prepared a standard curve. Results are as given in the table and illustrated in the figures.

Data set [2] deals with immune inhibitor A (In A). It counts as in vitro ADME. Particulars: InA series, Control (no Enzyme), 20 min at 36° C. The method, then: as §6, §7
Another data set deals with trypsin. The experiment in a line: proteolytic resistance to trypsin, residual antibiotic by inhibition zone on E. coli D21. In kind it is in vitro ADME. Particulars: 20 min at 36° C. The method, then:
as §6, §7

[3] abbreviates: Trypsin series, Control (no enzyme).

Read-outs that look alike come from different tables or passages of the source. Residues, ends and D or L forms follow the SMILES beside them. No end group written: not given here.

Sequence of immune inhibitor A (In A) (Bacillus thuringiensis subsp. alesti, UniProt P23382) (P23382 41-687): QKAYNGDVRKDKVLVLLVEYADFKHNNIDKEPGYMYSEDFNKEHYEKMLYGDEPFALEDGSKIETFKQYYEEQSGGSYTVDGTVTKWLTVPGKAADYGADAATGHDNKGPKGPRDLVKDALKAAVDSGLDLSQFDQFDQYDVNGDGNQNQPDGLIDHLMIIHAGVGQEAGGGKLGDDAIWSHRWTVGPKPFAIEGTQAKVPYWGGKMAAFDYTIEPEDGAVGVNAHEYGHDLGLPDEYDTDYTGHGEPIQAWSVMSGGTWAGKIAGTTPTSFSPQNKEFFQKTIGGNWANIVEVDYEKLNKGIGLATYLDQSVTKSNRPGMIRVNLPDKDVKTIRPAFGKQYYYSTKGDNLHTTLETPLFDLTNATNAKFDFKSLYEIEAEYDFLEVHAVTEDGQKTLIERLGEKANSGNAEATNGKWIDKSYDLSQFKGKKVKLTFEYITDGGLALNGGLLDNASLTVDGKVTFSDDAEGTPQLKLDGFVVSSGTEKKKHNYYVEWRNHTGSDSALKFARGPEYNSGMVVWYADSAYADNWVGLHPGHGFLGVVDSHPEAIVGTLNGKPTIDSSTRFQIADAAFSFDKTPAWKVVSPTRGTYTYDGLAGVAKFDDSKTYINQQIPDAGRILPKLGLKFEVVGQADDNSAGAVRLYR

Take `CC[C@@H](C)[C@@H](NC(=O)CNC(=O)[C@@H](CC(=O)O)NC(=O)[C@@H](CCCNC(=N)N)NC(=O)[C@H](NC(=O)[C@@H](CC(N)=O)NC(=O)[C@@H](CCC(N)=O)NC(=O)CNC(=O)[C@H](NC(=O)[C@@H](CCCCN)NC(=O)[C@@H](CCC(=O)O)NC(=O)[C@H](NC(=O)[C@@H](CCCCN)NC(=O)[C@@H](CCCCN)NC(=O)[C@@H](Cc1ccccc1)NC(=O)[C@@H](CC(C)C)NC(=O)[C@@H](CCCCN)NC(=O)[C@@H](Cc1c[nH]c2ccccc12)NC(=O)[C@H](N)CCCCN)[C@H](C)CC)C(C)C)[C@H](C)CC)C(=O)N[C@@H](C(=O)N[C@H](CCCCN)C(=O)N[C@H](C)C(=O)NCC(=O)N1CCC[C@@H]1C(=O)N[C@H](C)C(=O)N[C@@H](C(=O)N[C@H](C)C(=O)N[C@@H](C(=O)N[C@@H](C(=O)NCC(=O)N[C@H](CCC(N)=O)C(=O)N[C@H](C)C(=O)N[C@@H](C(=O)N[C@H](CCC(N)=O)C(=O)N[C@@H](C(=O)N[C@H](C)C(=O)N[C@H](CCCCN)C(N)=O)[C@H](C)CC)[C@H](C)O)C(C)C)C(C)C)C(C)C)[C@H](C)CC` [Compound 2] (HELM PEPTIDE1{[dK].[dW].[dK].[dL].[dF].[dK].[dK].[dI].[dE].[dK].[dV].G.[dQ].[dN].[dI].[dR].[dD].G.[dI].[dI].[dK].[dA].G.[dP].[dA].[dV].[dA].[dV].[dV].G.[dQ].[dA].[dT].[dQ].[dI].[dA].[dK].[am]}$$$$V2.0): the “Lethal Concentrations D21” value with E. coli D21 turned out to be 0.3 µM. Further, the “Lethal Concentrations OT97” value with P. aeruginosa OT97 is 0.8 µM. The “Lethal Concentrations Bs11 +ME” value in the data set with B. subtilis Bs11 came to 30 µM. Besides, in the data set on B. subtilis Bs11, the “Lethal Concentrations Bs11” value was found to be 3 µM. For the same compound, the “Lethal Concentrations Staph” value with S. aureus Cowan 1 was above 300 µM. In addition, in the data set with S. pyogenes, the “Lethal Concentrations Strep” value turned out to be 2 µM. Besides, in the data set on Sheep red cells, the “Lethal Concentrations SRC” value was above 300 µM. Moreover, the “Amount of peptide left” value in data set [1] (InA dilution A (10^-1)) is 512 pmol; in data set [1] (InA dilution B (10^-2)), 468 pmol; in [1] (InA dilution C (10^-3)) it was 468 pmol; in data set [1] (InA dilution D (10^-4)), 448 pmol; in [2] it was 535 pmol; with trypsin (Trypsin dilution A (10^-1)), 535 pmol. Further, the “Amount of peptide left” value with trypsin (Trypsin dilution B (10^-2)) was determined as 489 pmol; in the data set on trypsin (Trypsin dilution C (10^-3)), 512 pmol; in the data set on trypsin (Trypsin dilution D (10^-4)) it was 489 pmol; in the data set on trypsin (setting [3]), 512 pmol. Further, the Conc. in [1] (InA dilution A (10^-1)) turned out to be 171 µM; in data set [1] (InA dilution B (10^-2)) it was 156 µM; in data set [1] (InA dilution C (10^-3)), 156 µM; in data set [1] (InA dilution D (10^-4)), 149 µM; in [2] it was 178 µM; in the data set on trypsin (Trypsin dilution A (10^-1)), 178 µM. For the same compound, the Conc. in the data set on trypsin (Trypsin dilution B (10^-2)) is 163 µM; in the data set on trypsin (Trypsin dilution C (10^-3)), 171 µM; in the data set with trypsin (Trypsin dilution D (10^-4)), 163 µM; in the data set with trypsin (setting [3]), 171 µM. Moreover, the Percent remaining came out at 106% in data set [1] (InA dilution A (10^-1)); 96% in data set [1] (InA dilution B (10^-2)); 96% in data set [1] (InA dilution C (10^-3)); 92% in data set [1] (InA dilution D (10^-4)); 110% in data set [2]; 110% with trypsin (Trypsin dilution A (10^-1)). Moreover, the Percent remaining in the data set on trypsin (Trypsin dilution B (10^-2)) amounted to 101%; in the data set with trypsin (Trypsin dilution C (10^-3)) it was 106%; in the data set with trypsin (Trypsin dilution D (10^-4)), 101%; with trypsin (setting [3]) it was 106%. The Zone of inhibition was determined as 1.54 cm in [1] (InA dilution A (10^-1 of 0.1 mg/ml)); 1.52 cm in data set [1] (InA dilution B (10^-2)); 1.52 cm in data set [1] (InA dilution C (10^-3)); 1.51 cm in data set [1] (InA dilution D (10^-4)); 1.55 cm in data set [2] (peptide with water); 1.55 cm with trypsin (Trypsin dilution A (10^-1 of 5 mg/ml), E. coli D21 plates). Moreover, the Zone of inhibition stood at 1.53 cm in the data set on trypsin (Trypsin dilution B (10^-2), E. coli D21 plates); 1.54 cm in the data set on trypsin (Trypsin dilution C (10^-3), E. coli D21 plates); 1.53 cm in the data set on trypsin (Trypsin dilution D (10^-4), E. coli D21 plates); 1.54 cm in the data set with trypsin (Trypsin series, Control (no enzyme), peptide with water).
In the case of `CC[C@@H](C)[C@@H](NC(=O)CN)C(=O)NCC(=O)N[C@H](CCCCN)C(=O)N[C@H](Cc1ccccc1)C(=O)N[C@H](CC(C)C)C(=O)N[C@H](Cc1c[nH]cn1)C(=O)N[C@H](CO)C(=O)N[C@H](C)C(=O)N[C@H](CCCCN)C(=O)N[C@H](CCCCN)C(=O)N[C@H](Cc1ccccc1)C(=O)NCC(=O)N[C@H](CCCCN)C(=O)N[C@H](C)C(=O)N[C@H](Cc1ccccc1)C(=O)N[C@@H](C(=O)NCC(=O)N[C@H](CCC(=O)O)C(=O)N[C@@H](C(=O)N[C@H](CCSC)C(=O)N[C@H](CC(N)=O)C(=O)N[C@H](CO)C(N)=O)[C@H](C)CC)C(C)C` [Compound 9] (HELM PEPTIDE1{G.[dI].G.[dK].[dF].[dL].[dH].[dS].[dA].[dK].[dK].[dF].G.[dK].[dA].[dF].[dV].G.[dE].[dI].[dM].[dN].[dS].[am]}$$$$V2.0), in the data set with E. coli D21, the “Lethal Concentrations D21” value is 1 µM. Also, the “Lethal Concentrations OT97” value in the data set on P. aeruginosa OT97 is 30 µM. In addition, in the data set on B. subtilis Bs11, the “Lethal Concentrations Bs11 +ME” value turned out to be 4 µM and the “Lethal Concentrations Bs11” value worked out at 3 µM. In the data set with S. aureus Cowan 1, the “Lethal Concentrations Staph” value was determined as 100 µM. In addition, the “Lethal Concentrations Strep” value in the data set with S. pyogenes was 3 µM. The “Lethal Concentrations SRC” value in the data set with Sheep red cells is above 400 µM.
In the case of `CC[C@H](C)[C@H](NC(=O)CN)C(=O)NCC(=O)N[C@@H](C)C(=O)N[C@H](C(=O)N[C@@H](CC(C)C)C(=O)N[C@@H](CCCCN)C(=O)N[C@H](C(=O)N[C@@H](CC(C)C)C(=O)N[C@H](C(=O)N[C@H](C(=O)NCC(=O)N[C@@H](CC(C)C)C(=O)N1CCC[C@H]1C(=O)N[C@@H](C)C(=O)N[C@@H](CC(C)C)C(=O)N[C@H](C(=O)N[C@@H](CO)C(=O)N[C@@H](Cc1c[nH]c2ccccc12)C(=O)N[C@H](C(=O)N[C@@H](CCCCN)C(=O)N[C@@H](CCCNC(=N)N)C(=O)N[C@@H](CCCCN)C(=O)N[C@@H](CCCNC(=N)N)C(=O)N[C@@H](CCC(N)=O)C(=O)N[C@@H](CCC(N)=O)C(N)=O)[C@@H](C)CC)[C@@H](C)CC)[C@@H](C)O)[C@@H](C)O)C(C)C)C(C)C` [Compound 10, Melittin], in the data set on E. coli D21, the “Lethal Concentrations D21” value worked out at 0.8 µM. For the same compound, in the data set on P. aeruginosa OT97, the “Lethal Concentrations OT97” value was found to be 3 µM. Also, in the data set with B. subtilis Bs11, the “Lethal Concentrations Bs11 +ME” value is 0.3 µM and the “Lethal Concentrations Bs11” value stood at 0.2 µM. Moreover, the “Lethal Concentrations Staph” value in the data set on S. aureus Cowan 1 stood at 0.2 µM. Also, in the data set with S. pyogenes, the “Lethal Concentrations Strep” value was 0.5 µM. Moreover, in the data set on Sheep red cells, the “Lethal Concentrations SRC” value fell in the range of 4 to 8 µM.
Turning to “GIGKFLHSAKKFGKAFVGEIMNS-NH2 [Compound 8]”, in the data set on E. coli D21, the “Lethal Concentrations D21” value amounted to 4 µM. For the same compound, the “Lethal Concentrations OT97” value with P. aeruginosa OT97 stood at 30 µM. Also, in the data set with B. subtilis Bs11, the “Lethal Concentrations Bs11 +ME” value was found to be 8 µM and the “Lethal Concentrations Bs11” value is 3 µM. Besides, the “Lethal Concentrations Staph” value with S. aureus Cowan 1 is 300 µM. Besides, the “Lethal Concentrations Strep” value in the data set on S. pyogenes amounted to 4 µM. In addition, the “Lethal Concentrations SRC” value in the data set on Sheep red cells worked out at 300 µM.
